Assays:
Assay in all cases: relative viability (nuclei count vs DMSO), 5 days (fraction); higher = more cells survive
XMD14-99 + Tozasertib = compound: CN1CCN(CC1)C2=CC(=C(C=C2)NC3=NC(=C(S3)C(=O)C4=C(C=CC=C4Cl)Cl)N)OC [XMD14-99] + Cc1cc(Nc2cc(N3CCN(C)CC3)nc(Sc3ccc(NC(=O)C4CC4)cc3)n2)n[nH]1 [Tozasertib] (partner 0.1 µM)
Method in brief: (§1)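 Lung cancer cell lines in 1536-well plates were dosed by pin tool the day after seeding, either with one drug alone or with a fixed anchor-drug dose plus five library-drug doses (not always all listed) in √10 steps. After 5 days, cells were fixed and their nuclei stained in one step (final 0.05% Triton X-100, 1% formaldehyde, 1 ug/ml Hoechst), then counted on 4× images. Relative viability is the nuclei count in treated wells divided by that in vehicle wells. Values are medians of duplicate plates.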

XMD14-99 + Olaparib = compound: CN1CCN(CC1)C2=CC(=C(C=C2)NC3=NC(=C(S3)C(=O)C4=C(C=CC=C4Cl)Cl)N)OC [XMD14-99] + O=C(c1cc(Cc2n[nH]c(=O)c3ccccc23)ccc1F)N1CCN(C(=O)C2CC2)CC1 [Olaparib] (partner 8 µM)
Method in brief: as §1

XMD14-99 + Linsitinib = compound: CN1CCN(CC1)C2=CC(=C(C=C2)NC3=NC(=C(S3)C(=O)C4=C(C=CC=C4Cl)Cl)N)OC [XMD14-99] + C[C@]1(O)C[C@@H](c2nc(-c3ccc4ccc(-c5ccccc5)nc4c3)c3c(N)nccn32)C1 [Linsitinib] (partner 1 µM)
Method in brief: as §1

XMD14-99 + Lapatinib = compound: CN1CCN(CC1)C2=CC(=C(C=C2)NC3=NC(=C(S3)C(=O)C4=C(C=CC=C4Cl)Cl)N)OC [XMD14-99] + CS(=O)(=O)CCNCc1ccc(-c2ccc3ncnc(Nc4ccc(OCc5cccc(F)c5)c(Cl)c4)c3c2)o1 [Lapatinib] (partner 2 µM)
Method in brief: as §1

XMD14-99 + Bortezomib = compound: CN1CCN(CC1)C2=CC(=C(C=C2)NC3=NC(=C(S3)C(=O)C4=C(C=CC=C4Cl)Cl)N)OC [XMD14-99] + CC(C)C[C@H](NC(=O)[C@H](Cc1ccccc1)NC(=O)c1cnccn1)B(O)O [Bortezomib] (partner 0.002 µM)
Method in brief: as §1

Cell Line | relative viability (XMD14-99 + Tozasertib; first compound 0.08 µM) | relative viability (XMD14-99 + Tozasertib; first compound 0.8 µM) | relative viability (XMD14-99 + Tozasertib; first compound 2.53 µM) | relative viability (XMD14-99 + Tozasertib; first compound 8 µM) | relative viability (XMD14-99 + Olaparib; first compound 0.08 µM) | relative viability (XMD14-99 + Olaparib; first compound 0.8 µM) | relative viability (XMD14-99 + Olaparib; first compound 2.53 µM) | relative viability (XMD14-99 + Olaparib; first compound 8 µM) | relative viability (XMD14-99 + Linsitinib; first compound 0.08 µM) | relative viability (XMD14-99 + Linsitinib; first compound 0.8 µM) | relative viability (XMD14-99 + Linsitinib; first compound 2.53 µM) | relative viability (XMD14-99 + Linsitinib; first compound 8 µM) | relative viability (XMD14-99 + Lapatinib; first compound 0.08 µM) | relative viability (XMD14-99 + Lapatinib; first compound 0.8 µM) | relative viability (XMD14-99 + Lapatinib; first compound 2.53 µM) | relative viability (XMD14-99 + Lapatinib; first compound 8 µM) | relative viability (XMD14-99 + Bortezomib; first compound 0.08 µM) | relative viability (XMD14-99 + Bortezomib; first compound 0.8 µM) | relative viability (XMD14-99 + Bortezomib; first compound 2.53 µM) | relative viability (XMD14-99 + Bortezomib; first compound 8 µM)
NCI-H522 | 0.513 | 0.646 | 0.712 | 0.639 | 0.586 | 0.808 | 0.594 | 0.557 |  |  |  |  |  |  |  |  |  |  |  | 
HCC-15 | 0.421 | 0.31 | 0.322 | 0.199 | 0.688 | 0.661 | 0.706 | 0.441 | 0.91 | 0.902 | 0.826 | 0.702 | 0.867 | 0.894 | 0.792 | 0.611 | 1.04 | 0.999 | 0.896 | 0.769
A-427 | 0.224 | 0.227 | 0.201 | 0.188 | 0.793 | 0.628 | 0.67 | 0.501 | 1.15 | 1.08 | 1.01 | 0.904 | 1.14 | 0.984 | 0.999 | 0.898 | 0.933 | 0.924 | 0.77 | 0.829
NCI-H23 | 0.453 | 0.352 | 0.279 | 0.263 | 0.313 | 0.325 | 0.277 | 0.225 | 0.516 | 0.617 | 0.59 | 0.527 | 1.08 | 1.29 | 1.14 | 0.881 | 0.95 | 0.908 | 1.12 | 0.728
NCI-H1734 | 0.288 | 0.244 | 0.248 | 0.227 | 0.605 | 0.581 | 0.595 | 0.385 | 0.854 | 0.897 | 0.823 | 0.745 | 1.01 | 0.997 | 1.05 | 0.825 | 0.873 | 0.847 | 0.822 | 0.707
NCI-H1993 | 0.602 | 0.68 | 0.549 | 0.571 | 1.11 | 0.942 | 0.943 | 0.793 | 0.684 | 0.66 | 0.659 | 0.749 | 0.881 | 0.767 | 0.749 | 0.745 | 1.14 | 0.956 | 0.92 | 0.864
PC-3 [JPC-3] | 0.889 | 0.828 | 0.789 | 0.705 | 1.09 | 1.1 | 1.16 | 0.733 | 1.04 | 0.878 | 0.828 | 0.844 | 0.491 | 0.443 | 0.41 | 0.387 | 0.901 | 0.832 | 0.832 | 0.723
NCI-H1915 | 0.423 | 0.42 | 0.428 | 0.386 | 0.239 | 0.246 | 0.268 | 0.234 | 1.14 | 1.04 | 0.951 | 0.965 | 1 | 0.974 | 0.959 | 0.911 | 1.03 | 0.97 | 0.872 | 0.904
NCI-H1666 | 0.61 | 0.582 | 0.498 | 0.537 | 0.81 | 0.73 | 0.737 | 0.763 | 0.809 | 0.834 | 0.704 | 0.625 | 0.741 | 0.582 | 0.721 | 0.399 | 0.872 | 0.782 | 0.825 | 0.629
HCC-366 | 0.117 | 0.109 | 0.657 | 0.0463 | 0.375 | 0.344 | 0.315 | 0.243 | 0.619 | 0.641 | 0.781 | 0.602 | 1.06 | 1.06 | 1.13 | 0.854 | 1.04 | 1.05 | 1.03 | 0.884
SK-MES-1 | 0.925 | 0.861 | 0.761 | 0.5 | 0.658 | 0.689 | 0.576 | 0.32 | 1.08 | 1.04 | 1.03 | 0.754 | 0.416 | 0.46 | 0.432 | 0.403 |  |  |  | 
NCI-H727 | 0.661 | 0.558 | 0.532 | 0.342 | 0.737 | 0.68 | 0.712 | 0.523 | 0.303 | 0.284 | 0.247 | 0.297 | 0.791 | 0.935 | 0.721 | 0.484 | 0.895 | 0.827 | 0.625 | 0.575
RERF-LC-KJ | 0.507 | 0.464 | 0.408 | 0.374 | 0.986 | 0.856 | 0.882 | 0.648 | 0.878 | 0.888 | 0.873 | 0.743 | 0.849 | 0.837 | 0.799 | 0.829 | 1.07 | 1.18 | 1.08 | 0.852
NCI-H1623 | 0.429 | 0.429 | 0.38 | 0.394 |  |  |  |  |  |  |  |  |  |  |  |  |  |  |  | 
Calu-6 |  |  |  |  | 0.524 | 0.529 | 0.502 | 0.472 | 0.918 | 0.918 | 0.883 | 0.732 | 0.996 | 0.934 | 0.936 | 0.735 | 0.944 | 0.875 | 0.85 | 0.598
LC-2-ad | 0.399 | 0.481 | 0.484 | 0.418 | 0.687 | 0.707 | 0.628 | 0.498 | 0.892 | 0.817 | 0.83 | 0.563 | 0.955 | 0.926 | 0.908 | 0.764 | 0.993 | 0.978 | 1 | 0.732
CAL-12T | 0.331 | 0.331 | 0.307 | 0.3 | 0.674 | 0.785 | 0.671 | 0.607 | 0.796 | 0.826 | 0.709 | 0.641 | 0.603 | 0.549 | 0.545 | 0.547 | 1.07 | 0.954 | 0.899 | 0.634
